The target of this assay is CFTR (Homo sapiens, UniProt P13569). Briefly: Membrane potential dye, Enteroid Assay A. The assay is classed as cell-based. The note with it: for Ent. A Max Activity: chloride transport as % of triple combination control (Enteroid Assay A); for EC50: human enteroid cells, 18-24 hours, acute 10 μM forskolin and 300 nM ivacaftor, read-out: Ent. A EC50. In short, it runs like this:
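Human intestinal enteroids incubated 18-24 h at 37 °C with test compound, then loaded with 20 μM methyl oxonol (with CaCC inhibitors). Chloride transport triggered in chloride-free buffer with 10 μM forskolin, 100 μM IBMX, 300 nM Compound III; fluorescence read 15 min, expressed as % of a triple-combination corrector/potentiator control.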

Read-outs that look alike come from different tables or passages of the source.

Chain of CFTR (P13569 with tags, fused parts or gaps DEL508-508): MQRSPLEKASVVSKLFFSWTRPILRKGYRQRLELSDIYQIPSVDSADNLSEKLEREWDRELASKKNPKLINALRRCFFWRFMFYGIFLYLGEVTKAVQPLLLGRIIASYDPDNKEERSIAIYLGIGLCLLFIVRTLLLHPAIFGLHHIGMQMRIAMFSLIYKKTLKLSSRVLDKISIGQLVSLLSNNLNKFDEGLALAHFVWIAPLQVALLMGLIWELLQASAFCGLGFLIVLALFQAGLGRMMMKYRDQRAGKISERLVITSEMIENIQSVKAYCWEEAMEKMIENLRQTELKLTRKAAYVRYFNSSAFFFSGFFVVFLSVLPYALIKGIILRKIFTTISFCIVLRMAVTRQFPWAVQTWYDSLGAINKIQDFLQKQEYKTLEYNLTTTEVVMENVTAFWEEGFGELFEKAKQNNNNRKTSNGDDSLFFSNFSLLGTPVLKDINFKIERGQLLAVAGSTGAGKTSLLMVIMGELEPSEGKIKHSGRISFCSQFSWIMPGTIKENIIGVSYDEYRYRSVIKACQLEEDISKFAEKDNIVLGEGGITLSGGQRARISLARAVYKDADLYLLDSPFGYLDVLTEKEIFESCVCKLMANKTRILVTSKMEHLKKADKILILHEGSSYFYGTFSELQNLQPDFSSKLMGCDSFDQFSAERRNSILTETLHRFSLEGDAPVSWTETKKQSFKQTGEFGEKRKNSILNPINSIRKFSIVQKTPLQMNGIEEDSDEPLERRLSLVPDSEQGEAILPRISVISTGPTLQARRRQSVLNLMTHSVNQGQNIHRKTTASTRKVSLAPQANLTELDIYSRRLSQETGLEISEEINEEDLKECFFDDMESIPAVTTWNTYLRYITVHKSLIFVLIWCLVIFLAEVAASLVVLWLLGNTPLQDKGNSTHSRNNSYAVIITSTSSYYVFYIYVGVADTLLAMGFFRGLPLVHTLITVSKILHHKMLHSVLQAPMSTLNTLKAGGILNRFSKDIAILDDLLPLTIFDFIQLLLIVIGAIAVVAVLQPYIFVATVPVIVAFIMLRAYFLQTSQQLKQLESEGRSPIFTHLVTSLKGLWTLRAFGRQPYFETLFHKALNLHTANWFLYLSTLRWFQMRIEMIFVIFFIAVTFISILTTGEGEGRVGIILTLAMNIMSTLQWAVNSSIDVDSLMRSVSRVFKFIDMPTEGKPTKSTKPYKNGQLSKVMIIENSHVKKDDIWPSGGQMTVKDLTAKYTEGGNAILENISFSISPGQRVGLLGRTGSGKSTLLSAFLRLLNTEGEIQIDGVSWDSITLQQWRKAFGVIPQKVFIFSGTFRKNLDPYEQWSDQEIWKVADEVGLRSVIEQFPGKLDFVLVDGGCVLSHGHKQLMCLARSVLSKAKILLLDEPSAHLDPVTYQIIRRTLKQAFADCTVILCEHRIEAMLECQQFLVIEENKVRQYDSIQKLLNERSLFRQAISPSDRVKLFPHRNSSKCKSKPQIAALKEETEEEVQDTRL

In the case of `Cc1cccc(C)c1-c1cc2nc(n1)NS(=O)(=O)c1cccc(c1)C(=O)N(CCC(C)C)[C@H](CCC1(C(F)(F)F)CC1)CO2` [Compound 851], the “Ent. A Max Activity” value (Table 6) is “+ (+ is <30%)”. Usually EC50 stands for the midpoint of the concentration-response curve. Turning to `Cc1cccc(C)c1-c1cc2nc(n1)NS(=O)(=O)c1cccc(c1)C(=O)N(Cc1ccccc1)[C@@H](CCC1(C(F)(F)F)CC1)CO2` [Compound 852], where the note is “Table 6”, the “Ent. A Max Activity” value is on record as “++ (++ is 30-60%)” and the 50% effective concentration (EC50) is below 1000 nM. Taken in the same sequence, the figures for `Cc1cccc(C)c1-c1cc2nc(n1)NS(=O)(=O)c1cccc(c1)C(=O)N(Cc1ccccc1)[C@H](CCC1(C(F)(F)F)CC1)CO2` [Compound 853] were “++ (++ is 30-60%)” and below 1000 nM.

Consider `Cc1cccc(C)c1-c1cc2nc(n1)NS(=O)(=O)c1cccc(c1)C(=O)N(Cc1ccc(N3CCN(C)CC3)nc1)[C@H](CC(C)C)CO2` [Compound 854], for which, under “Table 6”, the “Ent. A Max Activity” value was “+++ (+++ is >60%)” and the EC50 was below 1000 nM. Taken in the same sequence, the figures for `Cc1cccc(C)c1-c1cc2nc(n1)NS(=O)(=O)c1cccc(c1)C(=O)N(Cc1ccn(C)n1)[C@H](CC(C)C)CO2` [Compound 855] were “+++ (+++ is >60%)” and below 1000 nM.

`Cc1cccc(C)c1-c1cc2nc(n1)NS(=O)(=O)c1cccc(c1)C(=O)N(Cc1ccc(N3CCN(C)CC3)cc1)[C@H](CC(C)C)CO2` [Compound 856]: under “Table 6”, the “Ent. A Max Activity” value is listed as “+++ (+++ is >60%)” and the 50% effective concentration (EC50) was below 1000 nM. Taken in the same sequence, the figures for `CNc1ccc(CN2C(=O)c3cccc(c3)S(=O)(=O)Nc3nc(cc(-c4c(C)cccc4C)n3)OC[C@H]2CC(C)C)cn1` [Compound 857] were “+++ (+++ is >60%)” and below 1000 nM. Taken in the same sequence, the figures for `Cc1cccc(C)c1-c1cc2nc(n1)NS(=O)(=O)c1cccc(c1)C(=O)N(Cc1ccc(N3CCCC3)cc1)[C@H](CC(C)C)CO2` [Compound 858] were “+++ (+++ is >60%)” and below 1000 nM.

For `Cc1cccc(C)c1-c1cc2nc(n1)NS(=O)(=O)c1cccc(c1)C(=O)N(Cc1cccc(C#N)c1)[C@H](CC(C)C)CO2` [Compound 859], under “Table 6”, the “Ent. A Max Activity” value is given as “+++ (+++ is >60%)” and the EC50 was below 1000 nM.

With `Cc1cccc(C)c1-c1cc2nc(n1)NS(=O)(=O)c1cccc(c1)C(=O)N(Cc1ccn[nH]1)[C@H](CC(C)C)CO2` [Compound 860], for the setting “Table 6”, the “Ent. A Max Activity” value is recorded as “+++ (+++ is >60%)” and the 50% effective concentration (EC50) was below 1000 nM. Taken in the same sequence, the figures for `Cc1cccc(C)c1-c1cc2nc(n1)NS(=O)(=O)c1cccc(c1)C(=O)N(Cc1ccccc1C#N)[C@H](CC(C)C)CO2` [Compound 861] were “++ (++ is 30-60%)” and 1000 to 3000 nM.

`Cc1cccc(C)c1-c1cc2nc(n1)NS(=O)(=O)c1cccc(c1)C(=O)N(Cc1ccccc1)[C@H](CC(C)C)CO2` [Compound 862]: under “Table 6”, the “Ent. A Max Activity” value is listed as “+++ (+++ is >60%)” and the half-maximal effective concentration (EC50) was below 1000 nM.

As for `Cc1cccc(C)c1-c1cc2nc(n1)NS(=O)(=O)c1cccc(c1)C(=O)N(CC(C)C)C[C@H](Cc1ccccc1)O2` [Compound 863], under “Table 6”, the “Ent. A Max Activity” value was “+++ (+++ is >60%)” and the 50% effective concentration (EC50) was below 1000 nM.

Turning to `Cc1cccc(C)c1-c1cc2nc(n1)NS(=O)(=O)c1cccc(c1)C(=O)N(CC(C)C)C[C@H](c1ccccc1)O2` [Compound 864], where the note is “Table 6”, the “Ent. A Max Activity” value is listed as “++ (++ is 30-60%)” and the 50% effective concentration (EC50) was below 1000 nM. Turning to `CCN(CCO)c1ccc(CN2C(=O)c3cccc(c3)S(=O)(=O)Nc3nc(cc(-c4c(C)cccc4C)n3)OC[C@H]2CC(C)C)cn1` [Compound 935], under “Table 7”, the “Ent. A Max Activity” value is listed as “+++ (+++ is >60%)” and the EC50 was below 1000 nM. Taken in the same sequence, the figures for `Cc1cccc(C)c1-c1cc2nc(n1)NS(=O)(=O)c1cccc(c1)C(=O)N(Cc1ccc(N3CCC4(CCC4)CC3)nc1)[C@H](CC(C)C)CO2` [Compound 936] were “+++ (+++ is >60%)” and below 1000 nM. For `Cc1cccc(C)c1-c1cc2nc(n1)NS(=O)(=O)c1cccc(c1)C(=O)N(Cc1ccc(N3CCC(F)(F)CC3)nc1)[C@H](CC(C)C)CO2` [Compound 937], where the note is “Table 7”, the “Ent. A Max Activity” value is “+++ (+++ is >60%)” and the EC50 is below 1000 nM. Taken in the same sequence, the figures for `Cc1cccc(C)c1-c1cc2nc(n1)NS(=O)(=O)c1cccc(c1)C(=O)N(Cc1ccc(N3CCC(C)(C#N)CC3)nc1)[C@H](CC(C)C)CO2` [Compound 938] were “+++ (+++ is >60%)” and below 1000 nM. Taken in the same sequence, the figures for `Cc1cccc(C)c1-c1cc2nc(n1)NS(=O)(=O)c1cccc(c1)C(=O)N(Cc1ccc(N3CCC(C)(O)CC3)nc1)[C@H](CC(C)C)CO2` [Compound 939] were “+++ (+++ is >60%)” and below 1000 nM. Taken in the same sequence, the figures for `Cc1cccc(C)c1-c1cc2nc(n1)NS(=O)(=O)c1cccc(c1)C(=O)N(Cc1ccc(N3CCC(C)(C)CC3)nc1)[C@H](CC(C)C)CO2` [Compound 940] were “+++ (+++ is >60%)” and below 1000 nM. For `Cc1cccc(C)c1-c1cc2nc(n1)NS(=O)(=O)c1cccc(c1)C(=O)N(Cc1ccc(N3CCC(C(C)(C)C)CC3)nc1)[C@H](CC(C)C)CO2` [Compound 941], under “Table 7”, the “Ent. A Max Activity” value is listed as “+++ (+++ is >60%)” and the EC50 is below 1000 nM.

With `Cc1cccc(C)c1-c1cc2nc(n1)NS(=O)(=O)c1cccc(c1)C(=O)N(Cc1ccc(OCCN(C)C)nc1)[C@H](CC(C)C)CO2` [Compound 942], under “Table 7”, the “Ent. A Max Activity” value is reported as “+++ (+++ is >60%)” and the half-maximal effective concentration (EC50) is below 1000 nM.

Consider `Cc1cccc(C)c1-c1cc2nc(n1)NS(=O)(=O)c1cccc(c1)C(=O)N(Cc1ccc(N(C)CCN(C)C)nc1)[C@H](CC(C)C)CO2` [Compound 943], for which, for the setting “Table 7”, the “Ent. A Max Activity” value is on record as “+++ (+++ is >60%)” and the EC50 is below 1000 nM. In the same order, the values of `Cc1cccc(C)c1-c1cc2nc(n1)NS(=O)(=O)c1cccc(c1)C(=O)N(Cc1ccc(NCCN(C)C)nc1)[C@H](CC(C)C)CO2` [Compound 944] are “+++ (+++ is >60%)” and below 1000 nM. In the same order, the values of `Cc1cccc(C)c1-c1cc2nc(n1)NS(=O)(=O)c1cccc(c1)C(=O)N(Cc1ccc(N3CCC(N(C)C)CC3)nc1)[C@H](CC(C)C)CO2` [Compound 945] are “+++ (+++ is >60%)” and below 1000 nM.

On to `Cc1cccc(C)c1-c1cc2nc(n1)NS(=O)(=O)c1cccc(c1)C(=O)N(Cc1ccc(NCCO)nc1)[C@H](CC(C)C)CO2` [Compound 946], for which, under “Table 7”, the “Ent. A Max Activity” value is reported as “+++ (+++ is >60%)” and the EC50 is below 1000 nM. Consider `Cc1cccc(C)c1-c1cc2nc(n1)NS(=O)(=O)c1cccc(c1)C(=O)N(Cc1ccc(NC[C@@H](O)CO)nc1)[C@H](CC(C)C)CO2` [Compound 947], for which, under “Table 7”, the “Ent. A Max Activity” value is “+++ (+++ is >60%)” and the EC50 is below 1000 nM.

As for `CC[C@H](O)CNc1ccc(CN2C(=O)c3cccc(c3)S(=O)(=O)Nc3nc(cc(-c4c(C)cccc4C)n3)OC[C@H]2CC(C)C)cn1` [Compound 948], under “Table 7”, the “Ent. A Max Activity” value is reported as “+++ (+++ is >60%)” and the EC50 is 1000 to 3000 nM. In the same order, the values of `Cc1cccc(C)c1-c1cc2nc(n1)NS(=O)(=O)c1cccc(c1)C(=O)N(Cc1ccc(N(C)C)nc1)[C@H](CC(C)C)CO2` [Compound 949] are “+++ (+++ is >60%)” and below 1000 nM.

On to `Cc1cccc(C)c1-c1cc2nc(n1)NS(=O)(=O)c1cccc(c1)C(=O)N(Cc1ccc(N3CCC3)nc1)[C@H](CC(C)C)CO2` [Compound 950], for which, where the note is “Table 7”, the “Ent. A Max Activity” value is “+++ (+++ is >60%)” and the concentration giving a half-maximal response (EC50) is below 1000 nM. In the same order, the values of `Cc1cccc(C)c1-c1cc2nc(n1)NS(=O)(=O)c1cccc(c1)C(=O)N(Cc1ccc(N3C[C@@H](O)[C@@H](O)C3)nc1)[C@H](CC(C)C)CO2` [Compound 953] are “+++ (+++ is >60%)” and below 1000 nM.

Take `Cc1cccc(C)c1-c1cc2nc(n1)NS(=O)(=O)c1cccc(c1)C(=O)N(Cc1ccc(N3CC[C@@H](O)C3)nc1)[C@H](CC(C)C)CO2` [Compound 955]: under “Table 7”, the “Ent. A Max Activity” value is on record as “+++ (+++ is >60%)” and the EC50 was below 1000 nM. On to `Cc1cccc(C)c1-c1cc2nc(n1)NS(=O)(=O)c1cccc(c1)C(=O)N(Cc1ccc(N3CCC(CO)CC3)nc1)[C@H](CC(C)C)CO2` [Compound 956], for which, for the setting “Table 7”, the “Ent. A Max Activity” value was “+++ (+++ is >60%)” and the EC50 is below 1000 nM. Taken in the same sequence, the figures for `Cc1cccc(C)c1-c1cc2nc(n1)NS(=O)(=O)c1cccc(c1)C(=O)N(Cc1ccc(N3CC[C@@H](C)C3)nc1)[C@H](CC(C)C)CO2` [Compound 958] were “+++ (+++ is >60%)” and below 1000 nM.

With `Cc1cccc(C)c1-c1cc2nc(n1)NS(=O)(=O)c1cccc(c1)C(=O)N(Cc1ccc(N3CCC[C@@H]3C)nc1)[C@H](CC(C)C)CO2` [Compound 960], for the setting “Table 7”, the “Ent. A Max Activity” value is recorded as “+++ (+++ is >60%)” and the concentration for a half-maximal effect (EC50) is below 1000 nM. For the molecule `Cc1cccc(C)c1-c1cc2nc(n1)NS(=O)(=O)c1cccc(c1)C(=O)N(Cc1ccc(N3CCCC3)nc1)[C@H](CC(C)C)CO2` [Compound 961], where the note is “Table 7”, the “Ent. A Max Activity” value was “+++ (+++ is >60%)” and the EC50 is below 1000 nM. For `Cc1cccc(C)c1-c1cc2nc(n1)NS(=O)(=O)c1cccc(c1)C(=O)N(Cc1ccc(N3CCC[C@H](O)C3)nc1)[C@H](CC(C)C)CO2` [Compound 962], for the setting “Table 7”, the “Ent. A Max Activity” value is “+++ (+++ is >60%)” and the concentration for a half-maximal effect (EC50) was below 1000 nM. In the same order, the values of `Cc1cccc(C)c1-c1cc2nc(n1)NS(=O)(=O)c1cccc(c1)C(=O)N(Cc1ccc(N3CCCC(O)C3)nc1)[C@H](CC(C)C)CO2` (some centres unmarked) [Compound 963] are “+++ (+++ is >60%)” and below 1000 nM. In the same order, the values of `Cc1cccc(C)c1-c1cc2nc(n1)NS(=O)(=O)c1cccc(c1)C(=O)N(Cc1ccc(N3CCCC(C)C3)nc1)[C@H](CC(C)C)CO2` (some centres unmarked) [Compound 964] are “+++ (+++ is >60%)” and below 1000 nM.
